Experimental data taken from patent US9096643B2, “Cell-protective peptides and uses thereof” (priority 2010, dated 2015).
Where “and” joins values, the source holds several entries; their conditions need not be identical. Equal values may be shown once. No end group written: not given here.

Columns and labels:
Lewis rats = conditions: rat, in vivo, sc
Description: Cardiac constructs were made by encapsulation of neonatal Lewis rat cardiomyocytes in Az-chitosan-QHREDGS or Az-chitosan-RGDS. A total of 2×10^6 cardiomyocytes were resuspended in 15 μL of ice cold cardiomyocytes medium with 30% FBS for at least 10 min. These cells were then encapsulated in 100 μL of the hydrogel in transwell plates and constructs (2 mm thick and 6 mm in diameter) were produced. A total of 8 samples were made for each type of hydrogel, and 4 from each group were implanted, while the other 4 were retained as in vitro controls. Samples were cultured at 37° C. for 5 d before they were implanted in vivo.
Cardiac constructs described above were inserted subcutaneously into the abdomen of Lewis rats. Four samples were implanted for each type of hydrogel. […] Quantification of total SMA and Factor VIII was performed using ImageScope v10 (Aperio Technologies) and mean intensities were averaged for six fields for each sample and normalized to total area. […] Apoptosis was assessed using a TUNEL assay (Roche Applied Science) following the manufacturer's standard protocol.

human iPS cells BJ1D = experiment: iPS colony formation / cloning efficiency after complete dissociation at clonal density; format: cell-based
Description: (§1) The human iPS cells (BJ1D and 0901B) were obtained from the Ontario iPSC Facility and used following the hiPS cell research guidelines of the University of Toronto as described by Hotta et al. Nat. Protoc. 4, 1828-1844 (2009)), unless specified otherwise. Cells were cultured on a feeder layer of MEF cells (Mount Sinai Hospital Toronto, inactivated with 10 μg/ml mitomycin C and seeded at 1.8×10^5 per 3.5 cm dish). For single cell cultures, hiPS cell colonies were dissociated in 0.25% Trypsin-EDTA (Invitrogen) for 5 min, followed by trituration with a pipette. To ensure a single-cell suspension, the dissociated cells were passed through a 40 μm cell strainer (BD Falcon) and seeded onto MEF plates at 10 cells/ml, 10 cm plates. Cells were allowed to grow for 7 days and the total number of colonies was counted. In the treated groups, QHREDGS (Biomatik) or DGQESHR (Biomatik) dissolved in PBS (Lonza), were added at the reported concentrations to culture media at the onset of the first treatment passage and replenished with each media change. Media was changed by 100% every day. Peptides and controls were included during dissociation and passaging. Cells were analyzed after 5 passages in continuous treatment with 50 μM QHREDGS, 50 μM DGQESHR, or PBS, unless specified otherwise.
(§2) iPS cells, BJ1D or 0901B were treated with 50 μM of QHREDGS peptide, or 50 μM DGQESHR scrambled peptide in PBS with a PBS treated control for five passages as a preparation for passage by trypsin. Cells were trypsinized and plated at a clonal density of 10 cells/ml for one week and the number of colonies were counted.
(§3) After 5 passages in pre-treatment with 50 μM QHREDGS, or controls and complete dissociation (trypsinized), human iPS cells, BJ1D or 0901B cells, were plated on a mouse embryonic fibroblast (MEF) feeder layer at low density (100 cells/plate, 10 cm plate) in maintenance medium containing 50 μM QHREDGS, PBS, or 50 μM DGQESHR scrambled peptide. After one-week in culture, untreated or DGQESHR (scrambled peptide) treated groups generated few colonies, whereas QHREDGS treated groups for both BJ1D or 0901B cells produced many large colonies (˜15 times more than the controls) (see FIG. 13A/B, respectively). The colonies were positive for Oct4, a marker for the undifferentiated state. The cloning efficiency, based on ratio of Oct4+ colonies formed per initially seeded human iPS cells, was 27+/−7.1% and 2.5+/−0.6% for BJ1D and 48+/−9.4% and 22.3+/−1.9 for 0901B in the presence and absence of QHREDGS, respectively. […] Thus, treatment with QHREDGS supports single-cell culture of human iPS cells through the promotion of colony formation.

human iPS cells 0901B = experiment: as above; format: cell-based
Description: as §1, §2, §3

human iPS cells [1] = experiment: iPS cell colony number following passage; format: cell-based; conditions: vs PBS control, FIG. 11
Description: as §1
To determine the optimal concentration of QHREDGS for iPSC expansion, a dose-response experiment was performed. Cells were treated with 5 μM, 50 μM, or 500 μM of QHREDGS peptide, or 500 μM scrambled peptide (DGQESHR) in PBS with a PBS treated control for five passages and stained for CFDA-Live/PI-Dead. Live cells were counted using the cell counter plug in for ImageJ.

human iPS cells [2] = experiment: Teratoma formation after grafting into hind-limb muscles of NOD-SCID mice; format: in vivo; conditions: 10 passages in 50 μM, grafted into NOD-SCID mice
[3] = tested on: Human ESC-derived cardiac cells (Hes2); experiment: Total cell number of monolayer human ESC-derived cardiac cells; format: cell-based; conditions: 50 μM, 10 days, vs PBS control and DGQESHR
Description: Human ESC-derived cardiac cell culture, were derived from Day 20 EBs, consisting of greater than 50% cardiomyocytes obtained by directed differentiation of human ES (Hes2) cells as described by Yang et al. (Nature 453, 524-528 (2008)). EBs were dissociated using Collagenase I (Invitrogen) for 2 hrs and 0.05% Trypsin-EDTA (Invitrogen) for 5 min and plated at 40000 cells/cm^2 onto 0.2% gelatin-coated plates in Stempro 34 medium supplemented with VEGF (10 ng/ml) and DKK1 (150 ng/ml). Cells were cultured in the presence of 50 μM QHREDGS, 50 μM DGQESHR (Biomatik) or PBS until they formed a beating monolayer, around 10 days. Peptides were replenished during media changes every 3 days. 100 μM H2O2 (Sigma, dissolved in PBS) was added to culture media for 10 min, washed, and analyzed immediately for CFDA-Live/PI-Dead. Live cells were counted using the cell counter plug in for ImageJ. 0.5 μM or 2.5 μM taxol (Sigma, dissolved in DMSO) was added to culture media for 24 hrs, and the extent of apoptosis was analyzed immediately using the Apo-ONE Homogeneous Caspase Assay (Promega), or TUNEL assay (Roche) as described above. A PBS control was used for H2O2 and DMSO control was used for taxol.

[4] = 50 μM, 100 cells/plate on MEF, one week
[5] = in the presence of 50 μM QHREDGS

Substance	animal health / external signs of inflammation (Lewis rats)	colonies relative to controls (human iPS cells BJ1D; [4])	number of colonies (human iPS cells BJ1D; 50 μM, trypsinized, clonal density, one week, FIG. 13A)	cloning efficiency (Oct4+ colonies per initially seeded cells) (human iPS cells BJ1D; [5])	colonies relative to controls (human iPS cells 0901B; [4])	number of colonies (human iPS cells 0901B; 50 μM, trypsinized, clonal density, one week, FIG. 13B)	cloning efficiency (Oct4+ colonies per initially seeded cells) (human iPS cells 0901B; [5])	increase in colony number (human iPS cells [1]; 50 μM) [%]	increase in colony number (human iPS cells [1]; 50 μM, on average)	increase in colony number (human iPS cells [1]; 500 μM) [%]	teratoma formation (human iPS cells [2])	increase in number of cardiac cells/well [3]
Az-chitosan-QHREDGS: QHREDGS peptide covalently conjugated to Az-chitosan by EDC chemistry (also: covalently conjugated to Az-chitosan by EDC chemistry, site not given here)	no external signs of inflammation	–	–	–	–	–	–	–	–	–	–	–
QHREDGS (angiopoietin 1 peptide)	–	~15 times more than the controls	increased significantly	27+/−7.1% and 27%	~15 times more than the controls	increased significantly	48+/−9.4% and 48%	14.3	greater than 10 colonies/well	40	continued to form teratomas	greater than 2 fold
